Results from patent US9937115B2, “Oral care compositions with improved flavor” (priority 2010, dated 2018).
Where two headings read alike, the source gives them in different places.

Columns and labels:
[1] = target: T1, TRPA1 receptor (Homo sapiens, UniProt O75762); assay type: cell-based; details: percentage of the control (allyl isothiocyanate) calcium count, material dissolved in DMSO at 100 micromolar, HEK cells with TRPA1;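 as to TRPA1 Pre-incubation: values above 100 mean more active than the control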
T1 construct: expressed in transfected cells; host or cells: HEK cell line
T1 sequence (O75762 whole entry): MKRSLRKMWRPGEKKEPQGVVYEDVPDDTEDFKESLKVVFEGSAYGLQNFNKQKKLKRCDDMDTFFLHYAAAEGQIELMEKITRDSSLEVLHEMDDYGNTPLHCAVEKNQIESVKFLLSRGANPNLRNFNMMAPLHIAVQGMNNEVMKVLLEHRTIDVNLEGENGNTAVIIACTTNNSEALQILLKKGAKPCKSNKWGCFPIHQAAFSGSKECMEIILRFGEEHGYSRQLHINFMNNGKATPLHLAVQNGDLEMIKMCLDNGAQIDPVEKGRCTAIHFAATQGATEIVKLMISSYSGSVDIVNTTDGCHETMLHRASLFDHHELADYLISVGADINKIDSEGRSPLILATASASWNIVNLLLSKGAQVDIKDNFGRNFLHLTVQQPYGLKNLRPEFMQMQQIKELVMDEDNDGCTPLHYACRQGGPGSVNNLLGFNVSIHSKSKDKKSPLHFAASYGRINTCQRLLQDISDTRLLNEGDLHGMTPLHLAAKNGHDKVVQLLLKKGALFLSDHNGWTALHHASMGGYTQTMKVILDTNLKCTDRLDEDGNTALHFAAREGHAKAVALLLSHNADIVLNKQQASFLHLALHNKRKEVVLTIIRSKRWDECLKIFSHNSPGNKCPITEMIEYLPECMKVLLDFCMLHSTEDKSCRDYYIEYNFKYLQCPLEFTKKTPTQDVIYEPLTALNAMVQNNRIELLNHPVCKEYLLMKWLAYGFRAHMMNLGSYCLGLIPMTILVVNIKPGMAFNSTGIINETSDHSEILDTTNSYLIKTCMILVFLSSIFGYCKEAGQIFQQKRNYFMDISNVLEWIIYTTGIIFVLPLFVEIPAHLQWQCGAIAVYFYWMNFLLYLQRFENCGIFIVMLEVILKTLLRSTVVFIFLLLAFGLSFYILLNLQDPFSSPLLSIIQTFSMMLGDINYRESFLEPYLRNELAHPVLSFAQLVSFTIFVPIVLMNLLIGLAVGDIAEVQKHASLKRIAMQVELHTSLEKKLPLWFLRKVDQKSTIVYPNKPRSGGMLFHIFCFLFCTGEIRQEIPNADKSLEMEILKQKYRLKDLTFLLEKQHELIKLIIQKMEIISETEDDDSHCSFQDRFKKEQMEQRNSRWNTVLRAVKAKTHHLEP

[2] = target: T1, TRPA1 receptor; test: cell-based; design: activation: dose or concentration left out as unconfirmed; details: for TRPA1 Direct addition / activation at 100 µM: direct addition; for activation at 100 µM: read-out: TRPA1 Direct addition
Procedure: The term “TRPA1 activator” as used herein refers to any component which at a concentration of 1 mM gives a calcium flux count of at least 1000 counts above the background level of calcium present in the cell according to the FLIPR method as discussed herein. The term “count” is defined as the change in fluorescence of the transfected cell lines due to the influx of calcium across the cell membrane, which reacts with the calcium sensitive dye present within the cells.
In order to select TRPA1 agonists that would be preferred for reducing off-tasting chemical components found in oral care compositions, calcium flux receptor activity on the TRPA1 was utilized as the criteria for selection of actives. With allyl isothiocyanate as the TRPA1 positive control, molecules that directly activated the TRPA1 receptor were screened in dimethylsulfoxide (DMSO). Pure molecules of each material were dissolved in DMSO at a concentration of 100 micormolar and then added to an HEK cell line containing the TRPA1 receptor. If they are TRPA1 agonists, they will cause a calcium flux in the cell which fluoresces and may then be measured using a FLIPR machine.

[3] = percentage of the control (allyl isothiocyanate) calcium count, material dissolved in DMSO at 100 micromolar, HEK cells with TRPA1
[4] = HEK293, percentage of the control (allyl isothiocyanate) calcium count, material dissolved in DMSO at 100 micromolar, HEK cells with TRPA1
[5] = HEK293, percentage of the control (allyl isothiocyanate) calcium count, material dissolved in DMSO at 100 micromolar, HEK cells with TRPA1, pre-incubation, read-out: TRPA1 Pre-incubation

| Compound | TRPA1 Pre-incubation [1] [%] | TRPA1 Direct addition [2, 3] [%] | activation at 100 µM [2, 4] [%] | activation [2, 5] [%] | other results |
| --- | --- | --- | --- | --- | --- |
| CC(=O)O[C@@H]1C[C@H](C)CC[C@H]1C(C)C (racemic) [DL-Menthyl Acetate] | 43.32 | −16.09 | – | – | – |
| [Cl-].[Cl-].[Zn+2] [Zinc Chloride] | 21.61 | 5.46 | – | – | – |
| C=C[C@](C)(O)CCC=C(C)C [L-Linalool] | 65.28 | −11.37 | – | – | – |
| CCC(C)(O)CCCC(C)C (stereo not drawn) [Tetrahydrolinalool] | 70.8 | −17.09 | – | – | – |
| CCOC(=O)C1OC1(C)c1ccccc1 (stereo not drawn) [Ethyl 3-Methyl-3-Phenylglycidate] | 77.42 | 23.6 | – | – | – |
| CC(=O)/C(C)=C/C1C(C)=CCCC1(C)C (stereo not drawn) [Gamma Methyl Ionone] | 23.55 | 4.96 | – | – | – |
| CC(C)=CCC/C(C)=C/C=O [Lemarome] | 41.41 | 80.13 | – | – | – |
| Phellandrene | 52.15 | 1.65 | – | – | – |
| CC1=C(CCC(C)O)C(C)(C)CCC1 (stereo not drawn) [Dihydro-beta-ionol] | 97.15 | −0.33 | – | – | – |
| C/C=C/c1ccc(OCC)c(OC)c1 [ethyl isoeugenol] | 111.43 | −0.14 | – | – | – |
| CCCC(=O)OC(C)c1ccccc1 (stereo not drawn) [methyl benzyl butyrate] | 116.22 | −0.34 | – | – | – |
| C/C=C\C(=O)C1C(C)=CCCC1(C)C (stereo not drawn) [Alpha-Damascone] | 96.58 | −2.88 | – | – | – |
| O=C(O)C(O)C(O)C(=O)O [L-Tataric Acid] | 79 | −2.77 | – | – | – |
| CCCC1CCC(=O)O1 (stereo not drawn) [Gamma Heptalactone] | 51.03 | 1.18 | – | – | – |
| [Cl][Sn][Cl] [Stannous Chloride] | 54.35 | −14.1 | – | – | – |
| CCC=CCCOC(=O)CC(C)C [3-Hexenyl-3-Methylbutanoate] | 88.62 | −1.61 | – | – | – |
| CCC1OC(C)=C(O)C1=O (stereo not drawn) [2-Ethyl-4-Hydroxy-5-Methyl-3(2) Furanone] | 78.56 | −1.06 | – | – | – |
| CC/C=C\CCO [Hexen-1-ol] | 80.84 | 0.06 | – | – | – |
| CCOC(=O)CSC [Ethyl Methylthio Acetate] | 55.69 | −0.06 | – | – | – |
| C/C(C=O)=C\c1ccccc1 [Alpha-Methyl-Trans-Cinnamaldehyde] | 72.88 | 37.95 | – | – | – |
| CCCc1ccc(O)c(OC)c1 [Dihydroeugenol] | 103.71 | 0.07 | – | – | – |
| Roselea Spec 59514 | 71.26 | 14.53 | – | – | – |
| CCOC(=O)C1OC1c1ccccc1 (stereo not drawn) [Ethyl-3-Phenylglycinate] | 54.22 | 12.13 | – | – | – |

| Compound | TRPA1 Pre-incubation [1] [%] | TRPA1 Direct addition [2, 3] [%] | activation at 100 µM [2, 4] [%] | activation [2, 5] [%] | other results |
| --- | --- | --- | --- | --- | --- |
| C=C(C)CCCC(C)CCOC(C)=O (stereo not drawn) [Rhodinyl Acetate] | 66.4 | −17.14 | – | – | – |
| CC1CCC(C(C)(C)S)C(=O)C1 (stereo not drawn) [P-Mentha-8-Thiol-3-one] | 73.82 | 46.29 | – | – | – |
| Cc1ccc(C=O)cc1 [P-Totylaldehyde] | 60.52 | 11.1 | – | – | – |
| CCCCCCCCCCCC=O [Lauric Aldehyde] | 85.96 | 19.05 | – | – | – |
| C=C/C(C)=C/C/C=C(\C)CCC=C(C)C [Farmesene] | 90.8 | −0.32 | – | – | – |
| C=C(C)[C@@H]1CCC2=CCC[C@@H](C)[C@]2(C)C1 [Valencene] | 94.99 | 0.1 | – | – | – |
| CC(=O)c1nccs1 [2-Aceylthiazole] | 57.82 | −1.29 | – | – | – |
| COc1ccc(CC(C)=O)cc1 [1-(P-Methoxyphenyl)-2-Propanone] | 77.63 | 0.49 | – | – | – |
| CCOC(=O)c1ccccc1N [Ethyl Anthrailate] | 61.95 | 39.71 | – | – | – |
| CC1=C(/C=C/C(C)O)C(C)(C)CCC1 (stereo not drawn) [Beta-ionol] | 114.23 | −0.01 | – | – | – |
| CCCC/C=C/C=C/C=O [trans,trans,-2,4-Nonadienal] | −4.24 | 112.15 | – | – | – |
| COc1ccc(C(C)=O)cc1 [Acetanisole] | 83.69 | 0.15 | – | – | – |
| CC1C2CC(CC2C2CCCC(O)C2)C1(C)C (stereo not drawn) [Sandela] | 94.17 | 25.65 | – | – | – |
| CC(=O)OCCCc1ccccc1 [Phenyl Propyl Acetate] | 69.3 | −9.54 | – | – | – |
| CC(=O)C1(C)CC2=C(CCCC2(C)C)CC1C (stereo not drawn) [ISO E Super] | −0.4 | 11.53 | – | – | – |
| CC(=O)/C=C/C1C(C)=CCCC1(C)C (stereo not drawn) [Alpha-Ionone] | 111.19 | −0.9 | – | – | – |
| C/C=C/C(=O)C1C(C)C=CCC1(C)C (stereo not drawn) [delta-damascone] | 138.93 | 0.74 | – | – | – |
| Benzaldehyde Glyceryl Acetal | 30.62 | −2.74 | – | – | – |
| CCCC(=O)OCc1ccc(OC)cc1 [Anisyl butyrate] | 112.61 | −0.03 | – | – | – |
| C/C=C/c1ccc(OC(=O)Cc2ccccc2)c(OC)c1 [Iso-eugenyl phenylacetate] | 42.19 | 29.74 | – | – | – |
| CCCCCCOC(=O)CC [Hexyl Propionate] | – | – | -15.9 | 78.9 | – |
| COc1nccnc1C [2-Methoxy-3-Methylpyrazine] | – | – | -0.83 | 84.7 | – |
| CCC1OC(=O)C(O)=C1C (stereo not drawn) [5-Ethyl-3-Hydroxy-4-Methyl-2(5H)-Furanone] | – | – | 1.79 | 72.5 | – |

| Compound | TRPA1 Pre-incubation [1] [%] | TRPA1 Direct addition [2, 3] [%] | activation at 100 µM [2, 4] [%] | activation [2, 5] [%] | other results |
| --- | --- | --- | --- | --- | --- |
| CC1=C(O)C(=O)OC1C (stereo not drawn) [4,5-Dimethyl-3-Hydroxy-2,5-Dihydrofuran-2-one] | – | – | 0.18 | 89.1 | – |
| CC(=O)c1cc(C)sc1C [3-Acetyl-2,5-Dimethylthiophene] | – | – | 5.75 | 64.4 | – |
| CC(=O)OCCc1ccccc1 [Phenylethyl Acetate] | – | – | -22.5 | 93.8 | – |
| CCCCC(=O)OCC [Ethyl Valerate] | – | – | -0.08 | 101 | – |
| COc1ccc(CCC(C)=O)cc1 [4-(4-Methoxyphenyl)-2-Butanone] | – | – | -3.93 | 71.3 | – |
| COc1cc(C)ccc1C(C)C [thymyl methyl ether] | – | – | -0.16 | 108 | – |
| CC(C)=CCCC(C)CCOCC=O (stereo not drawn) [Citronellyl Oxyacetaldehyde] | – | – | 148 | -1.16 | – |
| CCOCc1ccccc1 [Benzyl Ethyl Ether] | – | – | -2.24 | 66.2 | – |
| O=C1NS(=O)(=O)c2ccccc21.[Na] [Saccharin Sodium] | – | – | – | – | activation ([2]; HEK293, read-out: TRPA1 Direct addition): -12.4%; activation ([2]; HEK293, read-out: TRPA1 Pre-incubation): 62.5% |
| Cn1cccc1C=O [1-Methylpyrrole-2-carboxaldehyde] | – | – | -3.47 | -1.04 | – |
| C=CCc1ccc(OC(=O)c2ccccc2)c(OC)c1 [Eugenol benzoate] | – | – | 22.9 | 57.3 | – |
| c1ccc2scnc2c1 [Benzothiazole] | – | – | -2.29 | 81.5 | – |
| C=C1CCC2CC1C2(C)C (stereo not drawn) [Beta-Pinene] | – | – | -6.02 | 73.6 | – |
| CCCCCCOC(=O)C(C)CC (stereo not drawn) [Hexyl-2-Methylbutyrate] | – | – | -0.38 | 67.1 | – |
| COc1cc(/C=C/C(=O)O)ccc1O [Trans-Ferulic Acid] | – | – | -2.53 | 85.6 | – |
| CC1OCCC1=O (stereo not drawn) [2-Methyltetrahydrofuran-3-one] | – | – | -1.5 | 77.5 | – |
| Cc1occc(=O)c1O [Maltol] | – | – | -2.79 | 102 | – |
| CC(=O)OCC=Cc1ccccc1 [Cinnamyl Acetate] | – | – | -0.13 | 70.1 | – |
| CCCCCC/C=C\CO [cis-2-nonen-1-ol] | – | – | -1.09 | 79.2 | – |
| CC/C=C\CCOC(=O)CCC [cis-3-Hexenyl Butyrate] | – | – | -0.46 | 87.9 | – |
| C=C1C2CCC(C2)C1(C)C (stereo not drawn) [Camphene] | – | – | -1.43 | 96.5 | – |
| CCCCCO [Amyl Alcohol] | – | – | -1.94 | 85.9 | – |
| CC(C)c1ccc(C=O)cc1 [Cuminaldehyde] | – | – | 25.6 | 72.9 | – |
